Source: patent EP0119446A2, “Growth promoting aminophenylethyl amine derivatives” (BAYER AG, priority 1983, dated 1984)

Test system: Ratten, weiblich
Experiment: Feeding trial in rats (feed intake, weight gain, feed conversion)
Type: in vivo, Ratten (SPF Wistar)
Conditions: n = 6
Excerpt: (§1) Die Tiere wurden 2 Tage an die neuen Haltungsbedingungen adaptiert, wobei generell das Versuchsfutter ohne Wirkstoffzusatz verabreicht wurde. Am dritten Versuchstag wurden die Tiere randomisiert und anschließend die Versuchsgruppen so gebildet, daß sowohl die Mittelwerte als auch die Streuungen in den Körpergewichten zwischen den Gruppen gleich waren. Nach einer 5-tägigen Vorperiode wurde eine 8-tägige Hauptperiode durchgeführt, in denen Futteraufnahme, Zuwachs und Futterverwertung bestimmt wurden.
Es wurden folgende Behandlungen geprüft: • b 1) Negativkontrolle (n = 12) • b 2) 25 ppm (Wirkstoff Beispiel 12) (n = 6)
as §1, with “7-tägige” for “8-tägige”
Es wurden folgende Behandlungen geprüft: • b 1) Negativkontrolle (n = 12) • b 2) 0,2 ppm (Wirkstoff Beispiel 12) (n = 6) • b 3) 10 ppm (Wirkstoff Beispiel 12) (n = 6)
Es wurden folgende Behandlungen geprüft: • b 1) Negativkontrolle (n = 12) • b 2) 25 ppm (Wirkstoff Beispiel 2) (n = 6)
as §1, with “7-tägigen” for “5-tägigen”, “7-tägige” for “8-tägige”
Es wurden folgende Behandlungen geprüft: • b 1) Negativkontrolle (n = 24) • b 2) 25 ppm (Wirkstoff Beispiel 2) (n = 6)
Es wurden folgende Behandlungen geprüft: • b 1) Negativkontrolle (n = 12) • b 2) 0,2 ppm (Wirkstoff Beispiel 1) (n = 6) • b 3) 10 ppm (Wirkstoff Beispiel 1) (n = 6)

[1] = 0,2 ppm in feed, whole test period 12 Tage (5-day pre-period + 7-day main period), negative control 200
[2] = 0,2 ppm in feed, whole test period 12 Tage, negative control 4,88
[3] = 0,2 ppm in feed, whole test period 12 Tage, negative control 41,0
[4] = 10 ppm in feed, whole test period 12 Tage (5-day pre-period + 7-day main period), negative control 200
[5] = 10 ppm in feed, whole test period 12 Tage, negative control 4,88
[6] = 10 ppm in feed, whole test period 12 Tage, negative control 41,0
[7] = 25 ppm in feed, whole test period 13 Tage (5-day pre-period + 8-day main period), negative control 174
[8] = 25 ppm in feed, whole test period 13 Tage, negative control 5,06
[9] = 25 ppm in feed, whole test period 13 Tage, negative control 35,4

Row | Compound | Futter-aufnahme [1] [g] | Futter-verwer-tung [2] | Zuwachs [3] | Futter-aufnahme [4] [g] | Futter-verwer-tung [5] | Zuwachs [6] | Futter-aufnahme [7] [g] | Futter-verwer-tung [8] | Zuwachs [9] | Futter-aufnahme (25 ppm in feed, whole test period 14 Tage (7-day pre-period + 7-day main period), negative control 225) [g] | Futter-verwer-tung (25 ppm in feed, whole test period 14 Tage, negative control 5,30) | Zuwachs (25 ppm in feed, whole test period 14 Tage, negative control 40,6)
1 | Cc1cc(NCC(O)c2cc(Cl)c(N)c(Cl)c2)ccc1Oc1ccc(SC(F)(F)F)cc1 (stereo not drawn) [Bsp. 1] | 204 | 4,25 g/g | 47,9 g | 206 | 4,46 g/g | 46,2 g | 184 | 4,23 g/g | 43,9 g | – | – | –
2 | Cc1cc(NCC(O)c2cc(Cl)c(N)c(Cl)c2)ccc1Oc1ccc(S(=O)(=O)C(F)(F)F)cc1 (stereo not drawn) [Bsp. 2] | – | – | – | – | – | – | 180 | 4,85 g/g | 37,5 g | 233 | 4,88 g/g | 47,8 g
3 | CC(C)C(C)[Si](C)(C)OC(CN(C(C)(C)C)[Si](C)(C)C(C)C(C)C)c1cc(Cl)c(N)c(Cl)c1 (stereo not drawn) [Bsp. 12] | 217 | 4,13 g/g | 52,5 g | 204 | 4,03 g/g | 50,7 g | 193 | 3,77 g/g | 51,9 g | – | – | –
